Assay results taken from US8604024B2, “Compounds for the reduction of beta-amyloid production” (Bristol-Myers Squibb Company, priority 2011, dated 2013).
Structures can show the parent of a compound that is named as a salt.

These molecules were tested on Aβ1-42 production in H4 cells stably transfected with APP751 containing the Swedish mutation (assay: Cellular assay for inhibition of Aβ1-42 production (H4 APP751 SWE clone 8.20)). Conditions: 19 h, H4 APP751 SWE clone 8.20 cells, 19 h incubation; read-out: Aβ42 cellular IC50.
Format: cell-based
Description: Cellular Assays for Inhibition of Aβ1-40 and Aβ1-42 Production
H4 cells stably transfected with APP751 containing the Swedish mutation (H4 APP751 SWE clone 8.20, developed at BMS) were maintained in log phase through twice weekly passage at a 1:20 split. […] Following incubation for 19 h in 5% CO2 at 37° C., plates were briefly centrifuged (1000 rpm, 5 min). A 10 μl aliquot from each well was transferred to a second assay plate (Costar 3709) for Aβ40 measurements. Antibody cocktails were freshly prepared by dilution into 40 mM Tris-HCl (pH 7.4) with 0.2% BSA and added to assay plates. For Aβ42 measurements, antibodies specific for the Aβ42 neoepitope (565, developed at BMS; conjugated to the Wallac reagent (Perkin Elmer)) and the N-terminal sequence of Aβ peptide (26D6, developed at SIBIA; conjugated to APC (Perkin Elmer)) were mixed and 20 μl of the mixture was added to each well of the incubated cell plate yielding a final concentration of 0.8 ng/well 565 and 75 ng/well 26D6. For the Aβ40 measurements, antibodies specific for the Aβ40 neoepitope (TSD, developed at BMS; conjugated to the Wallac reagent (Perkin Elmer)) and 26D6 as described above were mixed and 20 μl of the mixture was added to the 10 μl aliquots which had been removed previously from the cell plate yielding a final concentration of 1.6 ng/well TSD and 17.5 ng/well 26D6. Assay plates containing antibodies were sealed with aluminum foil and incubated overnight at 4° C. Signal was determined using a Viewlux counter (Perkin Elmer) and IC50 values determined using curve fitting in CurveMaster (Excel Fit based).

IC50	Compound
0.0072 µM	C[C@]12N=C(N)SC[C@H]1CCCc1ccc(NC(=O)c3ncc(Cl)cc3Cl)cc12 [Example 45a, N-((4aS,11bS)-2-Amino-11b-methyl-4,4a,5,6,7,11b-hexahydrobenzo[6,7]cyclohepta[1,2-d][1,3]thiazin-10-yl)-3,5-dichloropicolinamide]
1.8 µM	CC#Cc1cncc(-c2ccc3c(c2)[C@@]2(C)N=C(N)SC[C@H]2CC3)c1 (relative stereo) [Example 21, rel-(4aS,10bS)-10b-methyl-9-(5-(prop-1-yn-1-yl)pyridin-3-yl)-4,5,6,10b-tetrahydro-4H-naphtho[1,2-d][1,3]thiazin-2-amine, bis(2,2,2-trifluoroacetate)]
10 µM	C[C@@]12N=C(N)SC[C@@H]1CCOc1ccc(NC(=O)c3ccc(F)cn3)cc12 [Example 36b, N-((4aR,11bR)-2-Amino-11b-methyl-4a,5,6,11b-tetrahydro-4H-benzo[2,3]oxepino[4,5-d][1,3]thiazin-10-yl)-5-fluoropicolinamide]
9.4 µM	COc1ccc(-c2cn(-c3ccc4c(c3)[C@@]3(C)N=C(N)SC[C@H]3CCO4)cn2)cc1 (relative stereo) [Example 31, rel-(4aS,11bS)-10-(4-(4-Methoxyphenyl)-1H-imidazol-1-yl)-11b-methyl-4a,5,6,11b-tetrahydro-4H-benzo[2,3]oxepino[4,5-d][1,3]thiazin-2-amine, bis(2,2,2-trifluoroacetate)]
0.92 µM	C[C@@]12N=C(N)SC[C@@H]1CCCc1ccc(NC(=O)c3ncc(Cl)cc3Cl)cc12 [Example 45b, N-((4aR,11bR)-2-Amino-11b-methyl-4,4a,5,6,7,11b-hexahydrobenzo[6,7]cyclohepta[1,2-d][1,3]thiazin-10-yl)-3,5-dichloropicolinamide]
5.2 µM	NC1=N[C@@H]2c3cc(-c4cncnc4)ccc3CCC[C@@H]2CS1 (relative stereo) [Example 1, rel-(4aS,11bS)-10-Pyrimidin-5-yl-4,4a,5,6,7,11b-hexahydro-3-thia-1-aza-dibenzo[a,c]cyclohepten-2-ylamine, bis(2,2,2-trifluoroacetate)]
11 µM	C[C@]12N=C(N)SC[C@H]1CCOc1ccc(-n3cccn3)cc12 (relative stereo) [Example 32, rel-(4aS,11bS)-11b-Methyl-10-(1H-pyrazol-1-yl)-4a,5,6,11b-tetrahydro-4H-benzo[2,3]oxepino[4,5-d][1,3]thiazin-2-amine, 2,2,2-trifluoroacetate]
0.034 µM	C[C@]12N=C(N)SC[C@H]1CCCc1ccc(NC(=O)c3ccc(Cl)cn3)cc12 (relative stereo) [Example 3, 5-Chloro-pyridine-2-carboxylic acid (rel-(4aS,11bS)-2-amino-11b-methyl-4,4a,5,6,7,11b-hexahydro-3-thia-1-aza-dibenzo[a,c]cyclohepten-10-yl)-amide, 2,2,2-trifluoroacetate]
4.5 µM	Cc1ncc(-c2ccc3c(c2)[C@]2(C)N=C(N)SC[C@@H]2CCO3)s1 [Example 26a, (4aR,11bR)-11b-Methyl-10-(2-methylthiazol-5-yl)-4a,5,6,11b-tetrahydro-4H-benzo[2,3]oxepino[4,5-d][1,3]thiazin-2-amine]
18 µM	C[C@]12N=C(N)SC[C@H]1CCOc1ccc(-c3cnoc3)cc12 (relative stereo) [Example 25, rel-(4aS,11bS)-10-(Isoxazol-4-yl)-11b-methyl-4a,5,6,11b-tetrahydro-4H-benzo[2,3]oxepino[4,5-d][1,3]thiazin-2-amine, 2,2,2-trifluoroacetate salt]
6.7 µM	C[C@@]12N=C(N)SC[C@@H]1CCCc1ccc(NC(=O)c3ccc(Cl)cn3)cc12 [Example 3b, 5-Chloro-pyridine-2-carboxylic acid ((4aR,11bR)-2-amino-11b-methyl-4,4a,5,6,7,11b-hexahydro-3-thia-1-aza-dibenzo[a,c]cyclohepten-10-yl)-amide]

The remaining lines, values behind:

Compound	IC50
C[C@]12N=C(N)SC[C@H]1CCc1ccc(-c3cncc(Cl)c3)cc12 (relative stereo) [Example 6, rel-(4aS,10bS)-9-(5-Chloropyridin-3-yl)-10b-methyl-4a,5,6,10b-tetrahydro-4H-naphtho[1,2-d][1,3]thiazin-2-amine bis(2,2,2-trifluoroacetate)]	2.6 µM
C[C@]12N=C(N)SC[C@H]1CCc1ccc(NC(=O)c3ccc(F)cn3)cc12 (relative stereo) [Example 9, rel-N-((4aS,10bS)-2-amino-10b-methyl-4a,5,6,10b-tetrahydro-4H-naphtho[1,2-d][1,3]thiazin-9-yl)-5-fluoropicolinamide, 2,2,2-trifluoroacetate]	2.1 µM
C[C@@]12N=C(N)SC[C@@H]1CCCc1ccc(NC(=O)c3ccc(OC(F)F)cn3)cc12 [Example 46b, N-((4aR,11bR)-2-Amino-11b-methyl-4,4a,5,6,7,11b-hexahydrobenzo[6,7]cyclohepta[1,2-d][1,3]thiazin-10-yl)-5-(difluoromethoxy)picolinamide]	3.5 µM
Cc1cc(-c2ccc3c(c2)[C@@]2(C)N=C(N)SC[C@H]2CC3)n(C)n1 (relative stereo) [Example 20, rel-(4aS,10bS)-9-(1,3-Dimethyl-1H-pyrazol-5-yl)-10b-methyl-4a,5,6,10b-tetrahydro-4H-naphtho[1,2-d][1,3]thiazin-2-amine, bis(2,2,2-trifluoroacetate)]	> 30 µM
C[C@]12N=C(N)SC[C@H]1CCOc1ccc(NC(=O)c3ccc(F)cn3)cc12 [Example 36a, N-((4aS,11bS)-2-Amino-11b-methyl-4a,5,6,11b-tetrahydro-4H-benzo[2,3]oxepino[4,5-d][1,3]thiazin-10-yl)-5-fluoropicolinamide]	0.017 µM
C[C@]12N=C(N)SC[C@H]1CCc1ccc(-c3cn[nH]c3)cc12 (relative stereo) [Example 19, rel-(4aS,10bS)-10b-Methyl-9-(1H-pyrazol-4-yl)-4a,5,6,10b-tetrahydro-4H-naphtho[1,2-d][1,3]thiazin-2-amine, bis(2,2,2-trifluoroacetate)]	8 µM
C[C@]12N=C(N)SC[C@H]1CCOc1ccc(Nc3nccc4ccccc34)cc12 (relative stereo) [Example 41, rel-(4aS,11bS)—N10-(Isoquinolin-1-yl)-11b-methyl-4a,5,6,11b-tetrahydro-4H-benzo[2,3]oxepino[4,5-d][1,3]thiazine-2,10-diamine, bis(2,2,2-trifluoroacetate)]	16 µM
COc1cncc(-c2ccc3c(c2)[C@@]2(C)N=C(N)SC[C@H]2CCC3)c1 (relative stereo) [Example 11, rel-(4aS,11bS)-10-(5-methoxypyridin-3-yl)-11b-methyl-4,4a,5,6,7,11b-hexahydrobenzo[6,7]cyclohepta[1,2-d][1,3]thiazin-2-amine, bis(2,2,2-trifluoroacetate)]	3.4 µM
C[C@]12N=C(N)SC[C@H]1CCOc1ccc(NC(=O)c3ncc(Cl)cc3Cl)cc12 (relative stereo) [Example 34, rel-N-((4aS,11bS)-2-Amino-11b-methyl-4a,5,6,11b-tetrahydro-4H-benzo[2,3]oxepino[4,5-d][1,3]thiazin-10-yl)-3,5-dichloropicolinamide, 2,2,2-trifluoroacetate salt]	0.026 µM
C[C@]12N=C(N)SC[C@H]1CCOc1ccc(NC(=O)c3ncc(Cl)cc3Cl)cc12 [Example 34a, N-((4aS,11bS)-2-Amino-11b-methyl-4a,5,6,11b-tetrahydro-4H-benzo[2,3]oxepino[4,5-d][1,3]thiazin-10-yl)-3,5-dichloropicolinamide]	0.0069 µM
C[C@@]12N=C(N)SC[C@@H]1CCCc1ccc(NC(=O)c3ccc(C#N)cn3)cc12 [Example 44a, N-((4aR,11bR)-2-Amino-11b-methyl-4,4a,5,6,7,11b-hexahydrobenzo[6,7]cyclohepta[1,2-d][1,3]thiazin-10-yl)-5-cyanopicolinamide]	6.8 µM
C[C@]12N=C(N)SC[C@H]1CCOc1ccc(NC(=O)c3ccc(C#N)cn3)cc12 (relative stereo) [Example 35, rel-N-((4aS,11bS)-2-Amino-11b-methyl-4a,5,6,11b-tetrahydro-4H-benzo[2,3]oxepino[4,5-d][1,3]thiazin-10-yl)-5-cyanopicolinamide, 2,2,2-trifluoroacetate salt]	0.028 µM
NC1=N[C@@H]2c3cc(-c4cncnc4)cc(F)c3OCC[C@@H]2CS1 (relative stereo) [Example 4, rel-(4aS,11bS)-8-fluoro-10-pyrimidin-5-yl-4a,5,6,11b-tetrahydro-4H-7-oxa-3-thia-1-aza-dibenzo[a,c]cyclohepten-2-ylamine]	> 30 µM

Same assay, conditions: H4 APP751 SWE clone 8.20 cells, 19 h incubation; read-out: Aβ42 cellular IC50

IC50	Compound
5.1 µM	C[C@@]12N=C(N)SC[C@@H]1CCOc1ccc(NC(=O)c3ccc(C#N)cn3)cc12 (stereo in doubt) [Example 35a, N-((4aR,11bR)-2-amino-11b-methyl-4a,5,6,11b-tetrahydro-4H-benzo[2,3]oxepino[4,5-d][1,3]thiazin-10-yl)-5-cyanopicolinamide]
